The results in this text go back to patent US20260001946A1, “TREATMENT OF A DISEASE OR CONDITION IN A TISSUE ORIGINATING FROM THE ENDODERM” (BT Bidco, Inc., priority 2018, published 2026).

Structures are written as SMILES. Where a name gives a salt, the structure may show the parent alone. Read-outs that look alike come from different tables or passages of the source.

A short description of data set [1]: Tacrolimus blood concentration and AUC0-12 hours after IC or PO administration. To be noted: female, Yorkshire-Cross, swine, in vivo. How it is done:
FIG. 77 is a graph showing the mean concentration of tacrolimus in the blood 1 hour, 2 hours, 3 hours, 4 hours, 6 hours and 12 hours after intracecal (IC) or oral administration (PO) of tacrolimus to swine as described in Example 13.
FIG. 78 is a graph showing the AUC0-12 hours of tacrolimus in the blood after intracecal (IC) or oral administration (PO) of tacrolimus in swine as described in Example 13.
FIG. 87 is a graph showing the mean concentration of tacrolimus in the blood of swine 1 hour, 2 hours, 3 hours, 4 hours, 6 hours, and 12 hours after intracecal (IC) or oral administration (PO) of tacrolimus as described in Example 10.
FIG. 88 is a graph showing the AUC0-12 hours of tacrolimus in the blood of swine after intracecal (IC) or oral administration (PO) of tacrolimus as described in Example 10.

For data set [2] the following is noted: female, Yorkshire-Cross, swine, in vivo, po, 0.09 mg/kg. How it is done: FIG. 76 is a graph showing the mean concentration of tacrolimus in the cecum tissue and the proximal colon tissue 12 hours after intracecal or oral administration of tacrolimus to swine as described in Example 10.
FIG. 79 is a graph showing the mean concentration of tacrolimus in the cecum tissue, the proximal colon tissue, the spiral colon tissue, the transverse colon tissue, and the distal colon tissue after intracecal (IC) or oral administration (PO) of tacrolimus in swine as described in Example 13. ****P<0.0001, ***P<0.001.
FIG. 90 is a graph showing the mean concentration of tacrolimus in the cecum, the proximal colon, the spiral colon, the transverse colon, and the distal colon of swine after intracecal (IC) or oral administration (PO) of tacrolimus as described in Example 10.

Data set [3] is described as follows: Pharmacokinetics of oral vs intra-cecal tacrolimus: blood, rectal contents, GI tissue and luminal content (Example 13). Set-up: species or system Yorkshire-Cross farm swine. To be noted: in vivo. An excerpt:
(§1) No further randomization procedure was employed.

A short description of data set [4]: Tissue, plasma, rectal sample and GI content pharmacokinetics of tacrolimus, oral vs intra-cecal ingestible device (Example 10). Also on record: species or system Yorkshire-Cross farm swine. To be noted: in vivo. How it is done: The primary objective of this study was to compare the tissue, plasma, rectal sample, and GI content pharmacokinetics of tacrolimus through oral versus intra-cecal ingestible device delivery in normal Yorkshire-Cross farm swine.
as §1
Animals in Group 1 received an ingestible device containing 0.8 mL of vehicle solution (80% alcohol, 20% HCO-60). Animals in Group 2 received orally […] liquid formulation of tacrolimus at 4 mg/0.8 mL per animal (Prograf: 5 mg/mL). Animals in Group 3 received intra-cecally an ingestible device containing tacrolimus at 1 mg in 0.8 mL per ingestible device. Animals in Group 4 received intra-cecally an ingestible device containing tacrolimus at 2 mg in 0.8 mL per ingestible device. Animals in Group 5 received intra-cecally an ingestible device containing tacrolimus at 4 mg in 0.8 mL per ingestible device. To control for potential confounding effects of the surgery, all groups fast on Day −11 at least 24 hr before being subjected to anesthesia followed by surgical placements of a cecal port by a veterinary surgeon at Day −10. All animals were fasted for at least 12 hr prior to dosing on Day 1. Animals were dosed via either intra-cecal dosing (IC) or oral dosing (PO) at Day 1 (between 6-8 p.m.). All animals resumed feeding at approximately 4 hours after dose (11-12 p.m. after dosing).
Animals in Group 1 (Vehicle Control) were administered a single intra-cecal ingestible device containing 0.8 mL Vehicle solution (80% alcohol, 20% castor oil (HCO-60) on Day 1. On Day −10 the animals were anesthetized, and a veterinary surgeon surgically placed an intra-cecal port in each animal. On Day 1, each animal was placed into a sling then a single intra-cecal ingestible device containing 0.8 mL vehicle solution (80% alcohol, 20% castor oil (HCO-60)) is introduced by the veterinary surgeon into the cecum via the cecal port in each animal. Following ingestible device placement, the animals were removed from the slings and placed back into their pens with water. All animals resumed feeding at approximately 4 hours after dose. […] A total of 60 samples were collected.
Approximately 200˜400 mg of rectal content were collected, if available, with a fecal swab (Copan Diagnostics Nylon Flocked Dry Swabs, 502CS01). The fecal swab was pre-weighed and weighed after collection in the collection tube (Sterile Tube and Cap No Media, PFPM913S), and the sample weight was recorded. The fecal swab was broken via the breakpoint, and was stored in the collection tube, and immediately frozen at −70° C. […] Immediately following euthanasia, tissue was collected.
For tissue necropsy, small intestine fluid and cecal fluid were collected separately from all the animals into two separate square plastic bottles, and stored at −20° C. The length and diameter of the cecum and the colon was measured from one animal in each group and recorded for reference. Tissues were collected for pharmacokinetic analyses and include mesenteric lymph nodes, a Peyer's Patch, and five gastrointestinal sections, including cecum, proximal colon, transverse colon, distal colon, and rectum. All samples were weighed, and the tissue sample weights were recorded. […] Around 3 grams of the total punched sample were collected into a pre-weighed 15-mL conical tube, and the tissue weight was recorded. […]

Data set [5] relates to IL-6, GM-CSF, IL-15, IL-2, IL-12, IL-13, TNF-α, INF-γ.

In the case of `C=CC[C@@H]1/C=C(\C)C[C@H](C)C[C@H](OC)[C@H]2O[C@@](O)(C(=O)C(=O)N3CCCC[C@H]3C(=O)O[C@H](/C(C)=C/[C@@H]3CC[C@@H](O)[C@H](OC)C3)[C@H](C)[C@@H](O)CC1=O)[C@H](C)C[C@@H]2OC` [tacrolimus], the concentration at 12 h in data set [1] (0.02 mg/kg) was 0.746 ± 0.038 ng/mL; in data set [1] (0.04 mg/kg) it was 1.96 ± 0.491 ng/mL; in data set [1] (0.09 mg/kg) it was 4.35 ± 0.516 ng/mL; in data set [1] (po, 0.09 mg/kg) it was 0.568 ± 0.291 ng/mL; in data set [3] (female, Yorkshire-Cross, swine, 0.02 mg/kg, Trough (12 hr)) it was 0.746 ± 0.038 ng/mL; in data set [3] (female, Yorkshire-Cross, swine, 0.04 mg/kg, Trough (12 hr)), 1.96 ± 0.491 ng/mL. Moreover, the concentration at 12 h in data set [3] (female, Yorkshire-Cross, swine, 0.09 mg/kg, Trough (12 hr)) is 4.35 ± 0.561 ng/mL; in data set [3] (female, Yorkshire-Cross, swine, po, 0.09 mg/kg, Trough (12 hr)), 0.568 ± 0.291 ng/mL; in data set [3] (female, Yorkshire-Cross, swine, po, 0.09 mg/kg, Trough level (12 hr)), 0.568 ng/mL. Also, the “Tissue(mean) (ng/g)/AUG(0-12 hr) (ng · hr/mL) Ratio” value in data set [2] and in data set [2] (12 h) was 0 in each case. Moreover, the “Ratio Tissue(mean)/Trough(12 hr)” value in data set [3] (female, Yorkshire-Cross, swine, po, 0.09 mg/kg, 12 h) came out at 0. The Kp at 12 h in data set [3] (female, Yorkshire-Cross, swine, po, 0.09 mg/kg, Ratio Tissue(mean)/Trough(12 hr)) stood at 0. Besides, in data set [3], the “mean concentration of tacrolimus in the spiral colon lumen, the transverse colon lumen, and the distal colon lumen” value is listed as “statistically higher”. Further, the “mean concentration of tacrolimus in the spiral colon tissue and the transverse colon tissue” value in data set [3] is on record as “statistically higher”. Moreover, in data set [3] (po, 0.09 mg/kg), the “mean concentration and AUC0-12 hours of tacrolimus in the blood” value is “higher”. The “exposure AUC” value in data set [4] was < 2000-12 ng·h/mL. Further, the “mean concentration of tacrolimus in the cecum tissue and the proximate colon tissue” value in data set [4] is reported as “higher”. Besides, the “tissue (spiral and transverse colon) and luminal content (spiral, transverse, and distal colon) concentrations” value in data set [4] is reported as “Significantly higher”. In addition, the “level of tacrolimus in tissue” value in data set [4] (po) was “No measurable level”. In addition, the rectal content concentration entry in data set [4] (po) is “no detectable level”.
In the case of `C[C@@H]1CCN(C(=O)CC#N)C[C@@H]1N(C)c1ncnc2[nH]ccc12` [tofacitinib citrate], the “IL-6 expression in plasma” value in data set [5] (PO or IC administration, 1 h and 3 h post-treatment) is listed as “inhibition of IL-6 expression”. In addition, in data set [5] (all IC treated groups and high dose PO group (45 mg/kg) (FIG. 112B)), the “inhibition of IL-6 expression in colon tissue” value is reported as “sustained through 24 h post-dose”. The “GM-CSF levels in plasma or colon tissue” value in data set [5] (between IC and PO treatment groups) was “nor was there a significant difference”. For the same compound, in data set [5] (low dose PO group (15 mg/kg), by 12 h post-dose), the “IL-6 inhibition in colon tissue” value is listed as “Recovery from IL-6 inhibition was observed”.

What is called Kp is the ratio of the level in a tissue or fluid to that in plasma or blood.
